From US6348445B1, “Biologically active peptides with reduced toxicity in animals and a method for preparing same” (priority 1992, dated 2002)
≈ marks a conversion by molar mass, not a printed value. Where two headings read alike, the source gives them in different places. Where a SMILES comes first, the peptide text is derived from it. Where no end group is shown, it is not given here. The star is where a group is joined. Octanoyl = CCCCCCCC(=O)*

What was measured:
[1] = test system: E. coli ATCC strain 25922; assay: Minimal Inhibitory Concentration, microtiter broth dilution; format: cell-based; details: for MIC E. coli ATCC 25922: ATCC strain 25922; for Minimal Inhibitory Concentration E: E. coli ATCC strain 25922, Table I
Summary of the method: (§1)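 Peptides serially diluted 1:2 to final 0.25–256 μg/ml in Mueller Hinton broth, inoculated with 1-5×10^5 CFUs/ml from mid-log culture. Incubated 16-20 hours at 37° C. MIC = lowest peptide concentration giving a clear well.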

[2] = test system: S. aureus ATCC 29213; format: cell-based; details: ATCC 29213
[3] = test system: P. aeruginosa strain ATCC 27853; format: cell-based
Summary of the method: as §1

[4] = test system: S. mutans; assay: anaerobic anti-microbial susceptibility test (MIC); format: cell-based; set-up: unit not given here; details: 24-48 hours
[5] = test system: A. viscosus; assay: anaerobic anti-microbial susceptibility test (MIC); format: cell-based; details: 24-48 hours
[6] = test system: C. albicans; format: cell-based
Summary of the method: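 Peptides serially diluted 1:2 to final 0.25–256 μg/ml; inoculum 1-5×10^5 CFU/ml from mid-log culture in full-strength Mueller Hinton broth. Incubated 16-20 h at 37° C. MIC taken as lowest peptide concentration giving a clear well.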

[7] = test system: P. gingivalis; details: anaerobic, 24-48 hours
[8] = test system: S.aureus strain ATCC 25923; assay: Minimal Inhibitory Concentration, microtiter broth dilution; format: cell-based; details: Mueller Hinton broth, 16-20 hours at 37° C.
Source text: Table I, which follows, indicates the Minimal Inhibitory Concentration (MIC) in […] of various peptides against S.aureus strain ATCC 25923(S), P. aeruginosa strain ATCC 27853(P), E. coli ATCC strain 25922(E), and C. 4albicans (CA). […] The peptides are unsubstituted at the N-terminal; substituted with an acetyl group at the N-terminal, as indicated by Ac-; substituted with an octanoyl group at the N-terminal, as indicated by Oct-; substituted with spinogosine, as indicated by Sph-; substituted with a succinyl group, as indicated by Suc-; substituted with a hexanoyl group, as indicated by Hex-; substituted with a heptanoyl group, as indicated by Hep-; substituted with a valeryl group, as indicated by Val-; substituted with a myristryl group, as indicated by Myr-; or substituted with an ibuprofyl group, as indicated by Ibu-;
The procedure for the anti-bacterial assay is based upon the guidelines of the National Committee for Clinical Laboratory Standards, Document M7-T2, Volume 8, No. 8, 1988, which document is entirely incorporated herein by reference.
Stock solutions of peptides, with and without the appropriate substitutions, were prepared at a concentration of 512 μg/ml in sterile deionized distilled water and stored at −70° C.
The stock peptide solution was diluted in serial dilutions (1:2) down the wells of a microtiter plate so that the final concentrations of peptides in the wells were 0.25, 0.50, 1, 2, 4, 8, 16, 32, 64, 128 and 256 μg/ml. 1-5×10^5 CFUs/ml of either S. aureus ATCC 25923, E. coli ATCC 25922, P. aeruginosa ATCC 27853, or C. albicans, were added to the wells in full strength Mueller Hinton broth (BBL 11443) from a mid-log culture. The inoculum was standardized spectrophotometrically at 600 nm and was verified by colony counts. The plates were incubated for 16-20 hours at 37° C., and the minimal inhibitory concentration (MIC) for each peptide was determined. Minimal inhibitory concentration is defined as the lowest concentration of peptide which produces a clear well in the microtiter plate. The minimal inhibitory concentration of each of the peptides with and/or without the appropriate substitutions is given in Table I below.

[9] = MTD of repeat-dose intraperitoneal administration; format: in vivo, SCID mice; details: 135 mg/kg/week, three injections per week i.p.
Description: Determinations of a maximal tolerated dose (MTD) of repeat-dose intraperitoneal (i.p.) administration of MSI-344 or MSI-1857 in 60 SCID mice were done. Mice were injected with various doses of MSI-344 or MSI-1857 twice or thrice per week. Survival and body weight were monitored. On a twice per week dosing schedule, the MTDs of MSI-344 and MSI-1857 were 12 and 134 mg/kg/week, respectively. […] On a thrice per week dosing schedule, no deaths occurred in any groups, with high dose groups of MSI-344 and MSI-1857 receiving 90 mg/kg/week and […], respectively. A transient body weight loss was seen after initial dosing in most MSI-344 and MSI-1857 groups. No body weight loss greater than 6% occurred in any group on the thrice per week dosing schedule.
To determine estimates of MTDs of MSI-344 and MSI-1857 when administered intraperitoneally on repeat-dose regimens in SCID mice. The selection of SCID mice was based on the future plans of using this strain as host for xenograft human tumor efficacy models, and a pre-requisite for determining MTD for chronic administration that may be used during the efficacy model.
SCID mice are immunocompromised and therefore they were housed and handled in sterile environments. They had access to sterile water and sterilized chow ad lib.
A 1 mg/mL solution of MSI-344 was made in saline (0.9% sodium chloride injection USP, Abbott, North Chicago, Ill.) corrected for peptide content. Solutions of MSI-344 at concentrations of 0.6, 0.3, and 0.1 mg/mL were made by diluting the 1 mg/mL solution using saline as diluent. A 10 mg/mL solution of MSI-1857 was made in saline.
Solutions of MSI-1857 at concentrations of 6.7, 3.3, 3, 2, and 1 mg/mL were made by diluting the 10 mg/mL solution using saline as diluent.
Mice (four mice per dose group) were intraperitoneally administered MSI-344 or MSI-1857 using an injection volume of 10 mL/kg of the appropriate solution concentration on a twice per week (Groups 1 through 7) or thrice per week (Groups 8 through 15) dosing schedule every week for 20 weeks. Survival was monitored daily and body weights were recorded three times per week An interim analysis was performed at 3 weeks and the results of this interim analysis is presented in the present report.

[10] = P. aeruginosa strain ATCC 27853, Table I

Compound: CC[C@H](C)[C@H](NC(=O)CNCS(=O)(=O)O)C(=O)NCC(=O)N[C@@H](CCCCNCS(=O)(=O)O)C(=O)N[C@@H](Cc1ccccc1)C(=O)N[C@@H](CC(C)C)C(=O)N[C@@H](CCCCNCS(=O)(=O)O)C(=O)N[C@@H](CCCCNCS(=O)(=O)O)C(=O)N[C@@H](C)C(=O)N[C@@H](CCCCNCS(=O)(=O)O)C(=O)N[C@@H](CCCCNCS(=O)(=O)O)C(=O)N[C@@H](Cc1ccccc1)C(=O)NCC(=O)N[C@@H](CCCCNCS(=O)(=O)O)C(=O)N[C@@H](C)C(=O)N[C@@H](Cc1ccccc1)C(=O)N[C@H](C(=O)N[C@@H](CCCCNCS(=O)(=O)O)C(=O)N[C@H](C(=O)N[C@@H](CCSC)C(=O)N[C@@H](CCCCNCS(=O)(=O)O)C(=O)N[C@@H](CCCCNCS(=O)(=O)O)C(N)=O)[C@@H](C)CC)C(C)C
- MIC E. coli ATCC 25922 [1]: 128 µg/mL (≈ 37.3 µM)
- MIC S. aureus ATCC 29213 [2]: 64 µg/mL (≈ 18.6 µM)
- MIC P. aeruginosa ATCC 27853 ([3]; ATCC 27853): 64 µg/mL (≈ 18.6 µM)

Compound: CCCCCCCC(=O)N[C@@H](CCCCN)C(=O)N[C@H](C(=O)N[C@@H](C)C(=O)N[C@@H](CCCCN)C(=O)N[C@@H](CCCCN)C(=O)N[C@H](C(=O)N[C@@H](C)C(=O)N[C@@H](CCCCN)C(=O)N[C@H](C(=O)N[C@@H](C)C(=O)N[C@@H](CCCCN)C(=O)N[C@@H](CCCCN)C(=O)N[C@H](C(=O)N[C@@H](C)C(=O)N[C@@H](CCCCN)C(=O)N[C@H](C(=O)N[C@@H](C)C(=O)N[C@@H](CCCCN)C(=O)N[C@@H](CCCCN)C(=O)N[C@H](C(=O)N[C@@H](C)C(=O)O)[C@@H](C)CC)[C@@H](C)CC)[C@@H](C)CC)[C@@H](C)CC)[C@@H](C)CC)[C@@H](C)CC [Oct-(SEQ ID NO: 86)-OH] (Octanoyl-KIAKKIAKIAKKIAKIAKKIA-OH)
- MIC S. mutans [4]: 16
- MIC A. viscos [5]: 32 μl/ml
- Minimal Inhibitory Concentration E [1]: 2 µg/mL
- Minimal Inhibitory Concentration CA ([6]; C. albicans, Table I): 128 µg/mL
- MIC P. gingivalis (strain) 9-14K-1 [7]: 1 μl/ml
- MIC P. gingivalis (strain) 381 [7]: 1 μl/ml
- MIC P. gingivalis (strain) 450 [7]: 1 μl/ml
- MIC P. gingivalis (strain) A7A1-28 [7]: 1 μl/ml
- MIC P. gingivalis (strain) FAY-19M-1 [7]: 1 μl/ml
- Minimal Inhibitory Concentration P [3, 10]: 4 µg/mL
- Minimal Inhibitory Concentration S [8]: 8 µg/mL

Compound: CCCCCCCC(=O)N[C@@H](CCCCN)C(=O)N[C@@H](Cc1c[nH]c2ccccc12)C(=O)N[C@@H](CCCCN)C(=O)N[C@@H](CC(C)C)C(=O)N[C@@H](Cc1ccccc1)C(=O)N[C@@H](CCCCN)C(=O)N[C@@H](CCCCN)C(=O)N[C@H](C(=O)N[C@@H](CCC(=O)O)C(=O)N[C@@H](CCCCN)C(=O)N[C@H](C(N)=O)C(C)C)[C@@H](C)CC [Oct-(SEQ ID NO: 136)-NH2] (Octanoyl-KWKLFKKIEKV-NH2)
- Minimal Inhibitory Concentration E [1]: 256 µg/mL
- Minimal Inhibitory Concentration CA [6]: 256 µg/mL
- Minimal Inhibitory Concentration P ([3]; ATCC 27853): 64 µg/mL
- Minimal Inhibitory Concentration S [8]: 256 µg/mL

Compound: CCCCCCCC(=O)N[C@@H](CCCCN)C(=O)N[C@H](C(=O)N[C@@H](C)C(=O)N[C@@H](CCCCN)C(=O)N[C@@H](CCCCN)C(=O)N[C@H](C(=O)N[C@@H](C)C(=O)N[C@@H](CCCCN)C(=O)N[C@H](C(=O)N[C@@H](C)C(=O)N[C@@H](CCCCN)C(=O)N[C@@H](CCCCN)C(=O)N[C@H](C(=O)N[C@@H](C)C(N)=O)[C@@H](C)CC)[C@@H](C)CC)[C@@H](C)CC)[C@@H](C)CC [Oct-(SEQ ID NO: 153)-NH2] (Octanoyl-KIAKKIAKIAKKIA-NH2)
- Minimal Inhibitory Concentration E [1]: 32 µg/mL
- Minimal Inhibitory Concentration CA ([6]; C. albicans, Table I): 64 µg/mL
- Minimal Inhibitory Concentration P [3, 10]: 8 µg/mL
- Minimal Inhibitory Concentration S [8]: 8 µg/mL

Compound: O=S([O-])S(=O)(=O)[O-].[Na+].[Na+] [Sodium metabisulfite, reference compound]
- lethality [9]: no lethality

Compound: GIGKFLKKAKKFGKAFVKIMKK-NH2 [SEQ ID NO: 155-NH2]
- MIC E. coli ATCC 25922 [1]: 16 µg/mL
- MIC S. aureus ATCC 29213 [2]: 16 µg/mL
- MIC P. aeruginosa ATCC 27853 ([3]; ATCC 27853): 32 µg/mL

Compound: H-KIAKKIAKIAKKIAKIAKKIA-OH [(SEQ ID NO: 86)-OH, (Lys Ile Ala Lys Lys Ile Ala)3]
- MIC S. mutans [4]: 16
- MIC A. viscos [5]: 32 μl/ml
- Minimal Inhibitory Concentration E [1]: 2 µg/mL
- Minimal Inhibitory Concentration CA ([6]; C. albicans, Table I): 256 µg/mL
- MIC P. gingivalis (strain) 9-14K-1 [7]: 16 μl/ml
- MIC P. gingivalis (strain) 381 [7]: 16 μl/ml
- MIC P. gingivalis (strain) 450 [7]: 4 μl/ml
- MIC P. gingivalis (strain) A7A1-28 [7]: 4 μl/ml
- MIC P. gingivalis (strain) FAY-19M-1 [7]: 8 μl/ml
- Minimal Inhibitory Concentration P [3, 10]: 32 µg/mL
- Minimal Inhibitory Concentration S [8]: 128 µg/mL
